Experimental data taken from US6534518B1, “Polysubstituted 6-phenylphenanthridines with PDE-IV inhibiting activity” (Altana Pharma AG, priority 1999, dated 2003).

Test system: PDE4
Test: Inhibition of PDE4 activity (method of Bauer and Schwabe, microtiter plates)
Format: biochemical
Conditions: inhibitory concentration as −log IC50 (mol/l)
Procedure: The activity test was carried out according to the method of Bauer and Schwabe, which was adapted to microtiter plates (Naunyn-Schmiedeberg's Arch. Pharmacol. 1980, 311, 193-198). The PDE reaction takes place in the first step here. In a second step, the resulting 5′-nucleotide is cleaved by a 5′-nucloetidase of the snake venom of Crotalus atrox to the uncharged nucleoside. In the third step, the nucleoside is separated from the remaining charged substrate on ion-exchange columns. The columns are eluted directly into minivials, into which 2 ml of scintillator fluid are additionally added for counting, using 2 ml of 30 mM ammonium formate (pH 6.0).
The inhibitory values determined for the compounds according to the invention [inhibitory concentration as −log IC50 (mol/l)] follow from the following Table A, in which the numbers of the compounds correspond to the numbers of the examples.
In the case of `COc1cc2c(cc1OC)[C@@H]1CCCC[C@@H]1N=C2c1cc(OC)c(OC)c(S(C)(=O)=O)c1` [Compound 5, (−)-cis-6-(3-Methanesulfonyl-4,5-dimethoxyphenyl)-8,9-dimethoxy-1,2,3,4,4a,10b-hexahydrophenanthridine], the “−log IC50 (inhibition of the PDE4 activity)” value is reported as 7.57. For `COc1cc2c(cc1OC)[C@@H]1CCCC[C@@H]1N=C2c1cc([N+](=O)[O-])cc([N+](=O)[O-])c1` [Compound 3, (−)-cis-8,9-Dimethoxy-6-(3,5-dinitrophenyl)-1,2,3,4,4a,10b-hexahydrophenanthridine], the “−log IC50 (inhibition of the PDE4 activity)” value was 6.56. For `COc1cc2c(cc1OC)[C@@H]1CCCC[C@@H]1N=C2c1cc(OC)c(OC)c(OC)c1` [Compound 4, (−)-cis-8,9-Dimethoxy-6-(3,4,5-trimethoxyphenyl)-1,2,3,4,4a,10b-hexahydrophenanthridine], the “−log IC50 (inhibition of the PDE4 activity)” value was 6.96. With `COc1cc2c(cc1OC)C1CCCCC1N=C2c1cc(C(F)(F)F)cc(C(F)(F)F)c1` (single isomer, unassigned; (-)) [Compound 2, (−)-cis-6-(Bis-3,5-trifluoromethylphenyl)-8,9-dimethoxy-1,2,3,4,4a,10b-hexahydrophenanthridine] the “−log IC50 (inhibition of the PDE4 activity)” value was 6.93. In the case of `CCOc1cc(C2=N[C@H]3CCCC[C@H]3c3cc(OC)c(OC)cc32)cc(OCC)c1OCC` [Compound 6, (−)-cis-8,9-Dimethoxy-6-(3,4,5-triethoxyphenyl)-1,2,3,4,4a,10b-hexahydrophenanthridine], the “−log IC50 (inhibition of the PDE4 activity)” value is reported as 7.81. With `COc1cc2c(cc1OC)[C@@H]1CCCC[C@@H]1N=C2c1ccc([N+](=O)[O-])c([N+](=O)[O-])c1` [Compound 1, (−)-cis-8,9-Dimethoxy-6-(3,4-dinitrophenyl)-1,2,3,4,4a,10b-hexahydrophenanthridine] the “−log IC50 (inhibition of the PDE4 activity)” value was 7.26.

Test system: not given
Test: not given
Conditions: not given
With `COc1cc2c(cc1OC)[C@@H]1CCCC[C@@H]1N=C2c1ccc([N+](=O)[O-])c([N+](=O)[O-])c1` [Compound 1, (−)-cis-8,9-Dimethoxy-6-(3,4-dinitrophenyl)-1,2,3,4,4a,10b-hexahydrophenanthridine] the melting point was 162 to 165 °C.
